Literature values, collected in patent US12357650B2, “Methods and compositions for cancer therapies that include delivery of halogenated thymidines and thymidine phosphorlylase inhibitors in combination with radiation” (Shuttle Pharmaceuticals, Inc., priority 2017, dated 2025).

Tested on: cells
Details: as compared to cells without the defective DNA; cited from earlier work

Structure (SMILES): O=c1[nH]c(=O)n([C@H]2C[C@H](O)[C@@H](CO)O2)cc1Br [BUdR, 5-bromo-2′-deoxyuridine]
- increase in susceptibility of cells to the lethal effects of RT: two-three fold
